Experimental data taken from US6284754A, “Pharmaceutical compositions containing 1-oleylazacycloheptan-2-one as enhancing agent of transport across biological membranes” (Schwarz Pharma AG, priority 1992, dated 2001).

What was measured:
[1] = sole anti-inflammatory agent, topical on human or animal skin, about 10 to 100%; cited from earlier work
[2] = system: human dermal fibroblasts; assay: Collagen contraction test (in vitro skin cell toxicity screening); assay type: cell-based; details: for IC50: Fibroblast, collagen sheets containing human dermal fibroblasts, read-out: IC50 (concentration at which shrinkage is 50% of the control); for toxicity (in words): compared with other azones
Procedure: Skin toxicity tests were performed using the so-called collagen contraction test (Ponec et al. Journal of Pharmaceutical Sciences Vol. 78, No. 9, September 1989 and Vol. 79, No. 4, April 1990). […] The concentration of the agent, at which the shrinkage is 50% of the control, is taken as the IC50, the "50% inhibition level".

[3] = Differential thermal analysis (DTA) of pretreated stratum corneum; parameters: species or system human; details: 24 h pretreatment in enhancer solution
Procedure: For differential thermal analysis human stratum corneum samples were pretreated (after prehydration) by submersion in the in test 1 described enhancer solutions for 24 hours, using untreated prehydrated stratum corneum samples as controls. Differential thermal analysis of ca. 20 mg samples was then performed on a differential scanning calorimeter (Maple).

[4] = Freeze-fracture electron microscopy of pretreated stratum corneum; details: 24 h pretreatment with solution in propylene glycol
Procedure: For freeze-fracture electron microscopy stratum corneum samples were pretreated during 24 hours with solutions of azacycloheptanones in propylene glycol by applying about 200 microliter per cm^2 of the solution on the apical surface. Samples were then snapfrozen in melting nitrogen (method according to Umrath, J. Microsc. 101: 103 (1974)), cross-fractured (Holman et al., J. Invest. Dermatol, 94: 332 (1990) )in a Balzers Freeze Fracture apparatus (Balzers 400 BAF) at high vacuum. The fracture surfaces were then shadowed with Pt and overcast with a layer of carbon. Upon thawing, the samples were cleaned to obtain the surface replicas. These were scooped up on copper grids and examined in a transmission electron microscope (Philips 401, operated at 80 kV).

[5] = Skin transport kinetics: nitroglycerin penetration through stratum corneum pretreated with 1-alkylazacycloheptan-2-ones; assay type: in vitro ADME, human; details: compared with other 1-alkylazacycloheptan-2-ones
Procedure: Human stratum corneum samples (18 mm in diameter) were obtained from fresh human skin (abdomen) by trypsinization. The stratum corneum samples were firstly prehydrated at 95% relative humidity (RH) over a saturated disodium hydrogen phosphate solution, then either submerged for 24 hours at 34° C. with 200 microliter of a 10% solution of an alkyl-aza-cycloheptan-one in propylene glycol by topical application, or directly used for a diffusion study.
The stratum corneum samples were subsequently sandwiched between silastic sheetings (127 micrometer thick silicone membranes, Dow Corning) which have been proven not to control the transport rate of the model drug used in the study, nitroglycerin. The thus obtained sandwiches were clamped in two-chamber flow-through diffusion cells and subjected to 24 hours diffusion experiments. The donor compartment having a volume of 16μl was flushed with a 0.05% nitroglycerin solution at a pumping rate of 35 ml/hr. […] Fractions of the acceptor fluid were collected at 1 hour intervals, and nitroglycerin was detected using a reversed phase HPLC procedure (chrom-sphere C18 100×30 mm column eluted at 22° C. (methanol:water=1:1) at a 1.1 ml/min flow rate (Spectroflow 400, Kratos.). The absorbance at 201 nm of the effluent was monitored on Waters 450 var. wavelength detector).

Compound	anti-inflammatory action, topical (in words) [1]	IC50 [2] [µM]	influence on gel-liquid transition temperature and transition enthalpy (in words) [3]	transition enthalpy of the intercellular lipids (gel-liquid transition) ([3]; control 7 J.g-1) [J/g]	toxicity (in words) ([2]; listed as 1-oleyl-azacyclo-heptan-2-one)	toxicity (in words) ([2]; listed as 1-oleylazacycloheptan-2-one)	toxicity (in words) ([2]; listed as oleyl azone)	electron microscopic findings in stratum corneum (in words) [4]	enhancement of nitroglycerin transport / percutaneous absorption (in words) [5]	enhancement of nitroglycerin transport / percutaneous absorption (in words) ([5]; listed as oleyl derivative)
CCCCCCCCCCCCN1CCCCCC1=O [C12, 1-dodecylazacycloheptan-2-one, reference compound]	capable of temporarily reducing the signs and symptoms of inflammation	240	–	–	–	–	–	–	–	–
CCCCCCCC/C=C\CCCCCCCCN1CCCCCC1=O [C18, 1-oleylazacycloheptan-2-one]	–	800	strongly influences both the gel-liquid transition temperature of the intercellular lipids, and the corresponding transition enthalpy	3.3	moderately toxic	less toxic than the 1-dodecylazacycloheptan-2-one	almost the least toxic azone among the effective enhancers (from C10 up to C18), and less toxic than C12 azone	penetrates deeply into the stratum corneum and induces the separation of a non-lamellar phase	more potent enhancer for percutaneous absorption than the 1-alkylazacycloheptan-2-ones according to the prior art	by far the most potent enhancer with respect to nitroglycerin transport
